Results reported in patent US11370788B2, “Substituted imidazo[4,5-c]quinoline compounds with an N-1 branched group” (3M INNOVATIVE PROPERTIES COMPANY, priority 2018, dated 2022).

System: Human peripheral blood mononuclear cells (PBMC)
Test: Cytokine Induction in Human Cells (PBMC)
Assay type: cell-based
Settings: 21-24 hours culture, lowest concentration giving cytokine at least 2× negative control; for MEC to Induce Cytokine IFN-alpha: ELISA; for MEC to Induce Cytokine IFN-gamma / MEC to Induce Cytokine TNF-alpha: multiplex bead assay
Experimental: Whole blood was obtained from healthy human donors and collected by venipuncture into vacutainer tubes or syringes containing EDTA. Human peripheral blood mononuclear cells (PBMC) were purified from the whole blood by density gradient centrifugation. Histopaque 1077 (15 mL, Sigma, St. Louis, Mo.) was transferred to 6×50 mL sterile polypropylene conical tubes. The Histopaque was overlayed with 15-25 mL of blood diluted 1:2 in Hank's Balanced Salts Solution (HBSS) (Gibco, Life Technology, Grand Island, N.Y.). The tubes were then centrifuged at 1370 rpm for 30 minutes at 20° C., with no brake (400λg, GH 3.8A Rotor).
The interface (buffy coat) containing the PBMC was collected and placed in a new sterile 50 mL conical polypropylene centrifuge tube. The PBMC were mixed with an equal volume of HBSS (about 20 mL from the interface and about 20 mL of HBSS), and then centrifuged at 1090 rpm, 10 minutes, 20° C., with brake (270λg, GH 3.8A Rotor). After completing centrifugation, the cells were resuspended in 2 to 3 mL ACK Red blood cell lysis buffer (ammonium chloride potassium solution, Gibco, Life Technology) and incubated for 2-5 minutes at 20° C. Next, HBSS (40 mL) was added to the cells, and the sample was centrifuged at 270×g for 10 minutes at 20° C. The supernatant was decanted, and the cell pellet was resuspended in 5 mL AIM V Medium (Gibco, Life Technology). Cell aggregates and debris were removed by filtering the cell solution through a BD Falcon 70 micron nylon cell strainer (BD Biosciences, San Jose, Calif.).
The number of viable cells was determined by counting with a Miltenyi FACS instrument (Miltenyi Biotec Inc., San Diego, Calif.) or by using a hemacytometer. For determining cell viability with a hemacytometer, the cells were diluted 1/10 in 0.4% trypan blue and HBSS (specifically, 50 microliter of trypan blue+40 microliter of HBSS+10 microliter of cell solution were added to a microfuge tube and mixed). Ten microliters of the diluted cells were then applied to the hemacytometer, and the number of viable PBMC were determined by microscopy.
The PBMC sample was then resuspended in 96-well plates at a concentration of 8×10^5 cells/well in 0.1 mL of AIM-V medium. Each compound was solubilized in DMSO to create a 3 mM stock solution. The stock solution was then further diluted with AIM-V medium to prepare the serial dilutions. The diluted compound (100 microliters) was then transferred to the PBMCs to achieve final compound concentrations of 30, 10, 3.3, 1.1, 0.37, 0.12, 0.04, 0.01 micromolar. The plates also had both positive and negative controls. The negative control wells contained only AIM-V medium with no example compound. The positive control wells contained imiquimod serially diluted to concentrations of 30, 10, 3.3, 1.1, 0.37, 0.12, 0.04, 0.01 micromolar. The plates were then cultured at 37° C./5% CO2 for 21-24 hours. Cell-free supernatants were harvested by centrifuging the 96-well plates at 2100 rpm, 23° C. for 10 minutes. Approximately 160 microliter of the supernatant was then stored in a NUNC 96-well plate, covered with the compression cap and stored at −80° C. until the cytokine analysis was done.
IFN-alpha cytokine levels (picograms/mL) were measured by ELISA (human IFN-alpha, pan specific, Mabtech, Cincinnati, Ohio). IFN-gamma and TNF-alpha levels (picograms/mL) were measured by multiplex bead assay (magnetic beads, R & D Systems, Minneapolis, Minn.) according to the manufacturer's instructions.
Specifically, the minimum effective concentration of each compound (micromolar) was determined as the lowest concentration of the compound that induced a measured cytokine response at a level ([…]) that was at least 2× greater than that observed with the negative control wells.

| Compound | MEC to Induce Cytokine IFN-alpha [µM] | MEC to Induce Cytokine IFN-gamma [µM] | MEC to Induce Cytokine TNF-alpha [µM] |
| --- | --- | --- | --- |
| CCOC[C@H](Cc1ccc(OCc2ccccc2)cc1)n1cnc2c(N)nc3ccccc3c21 [Example 6, 1-[(1S)-1-[(4-benzyloxyphenyl)methyl]-2-ethoxy-ethyl]imidazo[4,5-c]quinolin-4-amine] | ≤0.01 | ≤0.01 | ≤0.01 |
| CCCCC(CC)COc1ccc(C[C@@H](COCC)n2cnc3c(N)nc4ccccc4c32)cc1 (stereo partly drawn) [Example 5, 1-[(1 S)-1-(ethoxymethyl)-2-[4-(2-ethylhexoxy)phenyl]ethyl]imidazo[4,5-c]quinolin-4-amine] | 0.37 | 0.04 | ≤0.01 |
| CCCCCCCCCCCCOc1ccc(C[C@@H](COCC)n2cnc3c(N)nc4ccccc4c32)cc1 [Example 1, 1-[(1 S)-1-[(4-dodecoxyphenyl)methyl]-2-ethoxy-ethyl]imidazo[4,5-c]quinolin-4-amine] | 3.3 | 10 | 3.3 |
| CCCCOc1ccc(C[C@@H](COCC)n2cnc3c(N)nc4ccccc4c32)cc1 [Example 3, 1-[(1S)-1-[(4-butoxyphenyl)methyl]-2-ethoxy-ethyl]imidazo[4,5-c]quinolin-4-amine] | ≤0.01 | ≤0.01 | ≤0.01 |
| CCCCCCOc1ccc(C[C@@H](COCC)n2cnc3c(N)nc4ccccc4c32)cc1 [Example 4, 1-[(1S)-1-(ethoxymethyl)-2-(4-hexoxyphenyl)ethyl]imidazo[4,5-c]quinolin-4-amine] | ≤0.01 | ≤0.01 | ≤0.01 |
| CCCCCCCCOc1ccc(C[C@@H](COCC)n2cnc3c(N)nc4ccccc4c32)cc1 [Example 2, 1-[(1S)-1-(ethoxymethyl)-2-(4-octoxyphenyl)ethyl]imidazo[4,5-c]quinolin-4-amine] | 0.12 | 0.37 | 0.37 |
